# Test results reported in patent US20110118238A1, “2-ANILINOPURIN-8-ONES AS INHIBITORS OF TTK/MPS1 FOR THE TREATMENT OF PROLIFERATIVE DISORDERS” (ASTRAZENECA AB, priority 2007, published 2011).
# pIC50: −log10 of the molar value.
# What was measured:
# [1] = system: human colon tumour cell line HT29; test: Spindle Checkpoint Abrogation Assay (phosphohistone H3 serine 10); assay type: cell-based; settings: HT-29, HT29 cells, paclitaxol 7.8 nM, compound 5 h, histone H3 serine 10 positive cells, read-out: SCAA: Spindle checkpoint abrogation assay activity
# Text: Chromosome condensation in mitosis is accompanied by phosphorylation of histone H3 on serine 10. Dephosphorylation begins in anaphase and ends at early telophase, thus histone H3 serine 10 phosphorylation acts as an excellent mitotic marker. Paclitaxol is a microtubule stabilising drug which perturbs microtubule dynamics, invokes the spindle checkpoint and arrests cells in mitosis. These cells are positive for histone H3 serine 10 phosphorylation. Inhibition of the spindle checkpoint overrides the mitotic block in the presence of paclitaxol and the histone H3 serine 10 endpoint is used as a marker to determine the ability of compounds of the present invention to exit mitotic arrest prematurely.
# Cells of the human colon tumour cell line HT29 were seeded into 96 well black plates (Costar, Catalogue No 3904) in phenol red free Dulbecco's Modified Eagles Medium (DMEM) supplemented with 10% (v/v) FCS and 1% (v/v) L-Glutamine and incubated overnight at 37° C. Paclitaxol was added to the cells at a concentration of 7.8 nM and the cells incubated overnight prior to compound dosing. Test compounds were solubilised in DMSO, diluted to give a range of final assay concentrations, added to cells and incubated for 5 h at 37° C. […] The raw assay data were analysed by non-linear regression analysis and used to determine an IC50 value for each compound.
# [2] = target: T1, N-terminal GST tagged full length human TTK kinase (Homo sapiens, UniProt P33981); test: In Vitro TTK Kinase Assay 2 (Caliper LabChip LC3000); assay type: biochemical; settings: recombinant TTK, 12 μM ATP, read-out: EAA2: Enzyme Assay Activity (In Vitro TTK kinase assay 2)
# T1 construct: N-terminal GST tagged full length human TTK kinase; GST (N); made in house; host or cells: insect cells
# T1 sequence (P33981 1-857): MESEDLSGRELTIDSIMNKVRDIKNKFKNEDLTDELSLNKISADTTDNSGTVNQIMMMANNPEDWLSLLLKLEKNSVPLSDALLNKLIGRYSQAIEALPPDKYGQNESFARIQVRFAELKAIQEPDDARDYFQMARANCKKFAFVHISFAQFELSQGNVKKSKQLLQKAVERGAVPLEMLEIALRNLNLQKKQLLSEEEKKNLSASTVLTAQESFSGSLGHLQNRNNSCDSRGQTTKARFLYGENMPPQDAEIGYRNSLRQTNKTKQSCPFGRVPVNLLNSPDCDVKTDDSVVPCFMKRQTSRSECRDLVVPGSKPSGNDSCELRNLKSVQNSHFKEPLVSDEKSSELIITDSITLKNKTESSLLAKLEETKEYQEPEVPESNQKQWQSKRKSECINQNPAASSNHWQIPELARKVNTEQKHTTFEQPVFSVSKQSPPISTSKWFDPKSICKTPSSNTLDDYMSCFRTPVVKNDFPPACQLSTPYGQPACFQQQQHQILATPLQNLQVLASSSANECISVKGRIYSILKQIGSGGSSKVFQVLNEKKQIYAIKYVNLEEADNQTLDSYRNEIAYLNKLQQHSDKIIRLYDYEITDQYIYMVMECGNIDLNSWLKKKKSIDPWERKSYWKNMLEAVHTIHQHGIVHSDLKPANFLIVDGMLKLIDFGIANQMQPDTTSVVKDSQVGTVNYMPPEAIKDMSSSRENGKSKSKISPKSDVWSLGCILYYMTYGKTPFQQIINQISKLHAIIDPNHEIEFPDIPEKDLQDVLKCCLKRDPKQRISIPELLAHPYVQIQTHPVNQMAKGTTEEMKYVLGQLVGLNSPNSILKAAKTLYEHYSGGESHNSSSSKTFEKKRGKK
# Experimental: Each reaction was stopped by the addition of EDTA to a concentration of 40 mM in a solution which also comprised 0.1% coating reagent (Caliper LS), 100 mM HEPES pH 7.5, 0.015% v/v Brij™-35 and 5% DMSO. The stopped enzyme reactions were sipped through capillaries onto a Caliper chip where the peptide substrate and phosphorylated product were separated and detected via laser-induced fluorescence.
# [3] = target: T1, N-terminal GST tagged full length human TTK kinase; test: In Vitro TTK Kinase Assay 1 (AlphaScreen); assay type: biochemical; settings: recombinant TTK, 10 μM ATP, read-out: EAA: Enzyme Assay Activity (In Vitro TTK kinase assay 1)
# Experimental: Aliquots (2 μL) of each compound dilution were placed into wells of a Greiner 384-well low volume white polystyrene plate (Greiner Bio-one).
# The resultant signals arising from laser light excitation at 680 nm were read using a Packard Envision instrument.
SMILES,pIC50 [1],pIC50 [2],pIC50 [3]
"Cn1c(=O)n(C2CCCC2)c2nc(Nc3ccc(S(C)(=O)=O)cc3F)ncc21 [Example 3, 9-Cyclopentyl-2-{[2-fluoro-4-(methylsulfonyl)phenyl]amino}-7-methyl-7,9-dihydro-8H-purin-8-one]",5.64,6.88,
"CN1CCN(S(=O)(=O)c2ccc(Nc3ncc4c(n3)n(C3CCCC3)c(=O)n4C)cc2)CC1 [Example 13, 9-Cyclopentyl-7-methyl-2-({4-[(4-methylpiperazin-1-yl)-sulfonyl]-phenyl}amino)-7,9-dihydro-8H-purin-8-one]",5.43,6.20,
"CN1CCN(c2ccc(Nc3ncc4c(n3)n(C3CCCC3)c(=O)n4C)c(Cl)c2)CC1 [Example 18, 2-{[2-Chloro-4-(4-methylpiperazin-1-yl)phenyl]amino}-9-cyclopentyl-7-methyl-7,9-dihydro-8H-purin-8-one]",,7.83,6.60
"COc1cc(N2CCCN(C)CC2)ccc1Nc1ncc2c(n1)n(C1CCCC1)c(=O)n2C [Example 20, 9-Cyclopentyl-2-{[2-methoxy-4-(4-methyl-1,4-diazepan-1-yl)-phenyl]amino}-7-methyl-7,9-dihydro-8H-purin-8-one]",,7.40,6.60
"CCOc1cc(N2CCCN(C)CC2)ccc1Nc1ncc2c(n1)n(C1CCCC1)c(=O)n2C [Example 21, 9-Cyclopentyl-2-{[2-ethoxy-4-(4-methyl-1,4-diazepan-1-yl)-phenyl]amino}-7-methyl-7,9-dihydro-8H-purin-8-one]",,7.33,6.42
"COc1cc(NC2CCN(C)CC2)ccc1Nc1ncc2c(n1)n(C1CCCC1)c(=O)n2C [Example 22, 9-Cyclopentyl-2-({2-methoxy-4-[(1-methylpiperidin-4-yl)-amino]-phenyl}amino)-7-methyl-7,9-dihydro-8H-purin-8-one]",,6.93,6.50
"CCOc1cc(N2CCC(N(C)C)CC2)ccc1Nc1ncc2c(n1)n(C1CCCC1)c(=O)n2C [Example 23, 9-Cyclopentyl-2-({4-[4-(dimethylamino)piperidin-1-yl]-2-ethoxyphenyl}amino)-7-methyl-7,9-dihydro-8H-purin-8-one]",,7.12,6.15
"COc1cc(OC2CCN(C)C2)ccc1Nc1ncc2c(n1)n(C1CCCC1)c(=O)n2C (stereo not shown) [Example 24, 9-Cyclopentyl-2-({2-methoxy-4-[(1-methylpyrrolidin-3-yl)-oxy]-phenyl}amino)-7-methyl-7,9-dihydro-8H-purin-8-one]",,7.76,6.82
"CCOc1cc(OCCN(C)C)ccc1Nc1ncc2c(n1)n(C1CCCC1)c(=O)n2C [Example 25, 9-Cyclopentyl-2-({4-[2-(dimethylamino)ethoxy]-2-ethoxy-phenyl}-amino)-7-methyl-7,9-dihydro-8H-purin-8-one]",,7.54,6.83
"CCOc1cc(OC2CCN(C)CC2)ccc1Nc1ncc2c(n1)n(C1CCCC1)c(=O)n2C [Example 26, 9-Cyclopentyl-2-({2-ethoxy-4-[(1-methylpiperidin-4-yl)-oxy]-phenyl}amino)-7-methyl-7,9-dihydro-8H-purin-8-one]",,7.59,7.29
"COc1cc(CCN2CCN(C)CC2)ccc1Nc1ncc2c(n1)n(C1CCCC1)c(=O)n2C [Example 27, 9-Cyclopentyl-2-({2-methoxy-4-[2-(4-methylpiperazin-1-yl)-ethyl]phenyl}amino)-7-methyl-7,9-dihydro-8H-purin-8-one]",,7.62,6.54
"COc1cc(C2CCN(C)CC2)ccc1Nc1ncc2c(n1)n(C1CCCC1)c(=O)n2C [Example 28, 9-Cyclopentyl-2-{[2-methoxy-4-(1-methylpiperidin-4-yl)-phenyl]amino}-7-methyl-7,9-dihydro-8H-purin-8-one]",,7.84,7.26
"CCn1c(=O)n(C2CCCC2)c2nc(Nc3ccc(N4CCN(C)CC4)cc3OC)ncc21 [Example 29, 9-Cyclopentyl-7-ethyl-2-{[2-methoxy-4-(4-methylpiperazin-1-yl)-phenyl]amino}-7,9-dihydro-8H-purin-8-one]",,7.27,6.66
"CCn1c(=O)n(C2CCCC2)c2nc(Nc3ccc(OC4CCN(C)CC4)cc3OC)ncc21 [Example 30, 9-Cyclopentyl-7-ethyl-2-({2-methoxy-4-[(1-methylpiperidin-4-yl)-oxy]phenyl}amino)-7,9-dihydro-8H-purin-8-one]",,7.97,7.04
"CCn1c(=O)n(C2CCCC2)c2nc(Nc3ccc(C(=O)NC)cc3OC)ncc21 [Example 31, 4-[(9-Cyclopentyl-7-ethyl-8-oxo-8,9-dihydro-7H-purin-2-yl)-amino]-3-methoxy-N-methylbenzamide]",,7.79,6.43
"CCn1c(=O)n(C2CCCC2)c2nc(Nc3ccc(S(C)(=O)=O)cc3OC)ncc21 [Example 32, 9-Cyclopentyl-7-ethyl-2-{[2-methoxy-4-(methylsulfonyl)-phenyl]-amino}-7,9-dihydro-8H-purin-8-one]",,7.61,5.88
"CCn1c(=O)n(C2CCCC2)c2nc(Nc3ccc(S(N)(=O)=O)cc3)ncc21 [Example 34, 4-[(9-Cyclopentyl-7-ethyl-8-oxo-8,9-dihydro-7H-purin-2-yl)-amino]benzenesulfonamide]",,7.02,5.98
"COc1cc(N2CCN(C)CC2)ccc1Nc1ncc2c(n1)n(C1CCCC1)c(=O)n2CC#N [Example 36, (9-Cyclopentyl-2-{[2-methoxy-4-(4-methylpiperazin-1-yl)-phenyl]-amino}-8-oxo-8,9-dihydro-7H-purin-7-yl)acetonitrile]",,7.67,6.66
"COc1cc(C(=O)NC2CCN(C)CC2)ccc1Nc1ncc2c(n1)n(C1CCCC1)c(=O)n2CC#N [Example 37, 4-{[7-(Cyanomethyl)-9-cyclopentyl-8-oxo-8,9-dihydro-7H-purin-2-yl]amino}-3-methoxy-N-(1-methylpiperidin-4-yl)-benzamide]",,7.08,6.30
"N#CCn1c(=O)n(C2CCCC2)c2nc(Nc3ccc(S(N)(=O)=O)cc3)ncc21 [Example 38, 4-{[7-(Cyanomethyl)-9-cyclopentyl-8-oxo-8,9-dihydro-7H-purin-2-yl]amino}benzenesulfonamide]",,6.88,5.82
